From patent publication US8304547B2, “Azolecarboxamide compound or salt thereof” (Astellas Pharma Inc., priority 2007, dated 2012) come the findings set out here.

Molecules are shown by their SMILES. pIC50: −log10 of the molar value. Counter-ions that a name gives are not always drawn.

The subject of assay [1] is rat having urinary frequency caused by cyclophosphamide (CPA). Put plainly: Action on a rat having urinary frequency caused by cyclophosphamide (CPA). The assay is classed as in vivo. To be noted: CPA-treated Wistar female rat, value before administration = 100%. On the procedure:
Action of the Compound on a Rat Having Urinary Frequency Caused by Cyclophosphamide (CPA)
CPA (150 mg/5 ml/kg) was intraperitoneally administered to a Wistar female rat (Charles River Laboratories), and after 2 days, the experiment was carried out. It was forced to be orally administered with distilled water (30 ml/kg), and then confined in a metabolic cage, and urine weight and urination frequency were continuously measured for 1 hour. 3 or 10 mg/5 ml/kg of the compound (0.5% methylcellulose solution), or 5 ml/kg of a solvent (0.5% methylcellulose solution) was orally administered, and after 5 to 30 minutes, urination functions were measured after water-loading in the same manner as described above. A total urine weight was divided by the total urination frequency to determine an effective bladder capacity. With the value before administration of the compound being set at 100%, a rate of change in the effective bladder capacity caused by administration of the compound was determined.
In this test, at 2 days after CPA treatment, the effective bladder capacity had decreased (about 0.5 ml), indicating urinary frequency.

Another assay concerns the target T1, human trkA receptor (Homo sapiens, UniProt P04629).
T1 construct: expressed in transfected cells
Put plainly: trkA receptor inhibitory activity using a cell expressing a nerve growth factor receptor (NGF-dependent increase of calcium concentration in cells, FLIPR). The assay is classed as cell-based. The following applies: HEK293 cells stably expressing human trkA receptor; NGF-stimulated change in Ca concentration in cells. On the procedure:
Experiment to Measure trkA Receptor Inhibitory Activity Using a Cell Expressing a Nerve Growth Factor Receptor (trkA Receptor)
The trkA receptor inhibitory activity was measured by using the increase in a ligand-dependent calcium concentration in cells as an index. HEK293 cells (American Type Culture Collection) that stably expressed a human trkA receptor were dispensed onto a 96-well poly-D-lysine-coated plate (Product Name: Biocoat, PDL96W black/clear, by Nippon Becton Dickinson) to a 2×10^4 cells/well on the day before the experiment, and incubated overnight at 37° C. under 5% carbon dioxide (CO2) in a culture medium containing 10% fetal bovine serum (FBS) (Product Name: DMEM, Invitrogen Corporation). The culture medium was replaced by a loading buffer (a washing solution containing a 1.5 μM fluorescent-labelled indicator (Product Name: Fluo4-AM, Tong Ren Tang Technologies Co. Ltd.): a Hank's balanced salt solution (HBSS), 20 mM 2-[4-(2-hydroxyethyl)-1-piperazinyl]ethanesulfonic acid (HEPES)-sodium hydroxide (NaOH), 2.5 mM Probenecid, and 0.1% bovine serum albumin (BSA)), and left to stand at room temperature for 3 hours, and the cells were washed using a plate washer (Product Name: ELx405, BIO-TEK instrument Corporation) in which a washing solution had been set up. The compound that had been preliminarily dissolved and diluted in a washing solution was added thereto, and set up in a system for measuring a calcium (Ca) concentration in a cell (Product Name: FLIPR, Molecular Devices Corporation). After 5 minutes, a nerve growth factor (NGF, mouse derived 2.5S, Alomone) corresponding to 80% stimulation of a maximum response was added (to a final concentration of about 100 to 150 ng/ml) to measure the change in Ca concentrations in cells. The difference between a maximum value and a minimum value in the change of Ca concentrations in cells was determined, and kept as measurement data. With a response upon addition of NGF being set at 0%, and a response upon addition of a buffer being set at 100%, the concentration causing 50% inhibition was determined as an IC50 value. In the table, Ex represents Example Compound No. as below (the same applies hereinafter). From the results of this test, it was confirmed that the representative compounds of the present invention as below have a trkA receptor inhibitory action.

Assay [2] relates to enhanced vascular permeability caused by Rat NGF. Put plainly: Inhibitory activity on enhanced vascular permeability caused by Rat NGF (Evans blue). The assay is classed as in vivo. To be noted: Wistar female rat, 10 mg/kg oral, NGF intracutaneously 60 minutes after administration; for inhibition in vivo at 10 mg/kg: 1 h, read-out: Inhibitory rate. On the procedure: Evaluation of the Inhibitory Activity of the Compound on Enhanced Vascular Permeability Caused by Rat NGF
The in vivo NGF inhibitory activity of the compound was examined. A Wistar female rat (Japan SLC) was forced to be orally administered with the compound (0.5% methylcellulose solution) 10 mg/3 ml/kg or a solvent (0.5% methylcellulose solution) 3 ml/kg. Under ether anesthesia performed at 60 minutes after administration, physiological saline or 1 μg/ml NGF (NGF, mouse derived 2.5 S, Alomone) was intracutaneously administered to the back at 50 μl/site, and then immediately a 1% Evans blue solution (dissolved in physiological saline) was administered through the caudal vein at 3 ml/kg. At a time point of 10 minutes after administration, the skin on the back was taken, and shaken in formamide for 16 hours. After shaking, an absorbance of Evans blue extracted in formamide was measured by an absorbance meter (wavelength: 620 nm), and the concentration was determined by a calibration curve method. A value obtained by subtracting the concentration of Evans blue at a site administered with physiological saline from the concentration of Evans blue at a site administered with NGF was determined as an NGF-dependent action, and an inhibitory rate of the compound group was determined with a group administered with a solvent being set at 100%. In this test, it was confirmed that the representative compounds as below of the present invention have an excellent inhibitory action on enhanced vascular permeability caused by Rat NGF.

Setting [3] is: oral dose 10 mg/kg, evaluation period 15-75 minutes after administration.
Setting [4] is: oral dose 10 mg/kg, evaluation period 5-65 minutes after administration.

T1 sequence (P04629 33-796): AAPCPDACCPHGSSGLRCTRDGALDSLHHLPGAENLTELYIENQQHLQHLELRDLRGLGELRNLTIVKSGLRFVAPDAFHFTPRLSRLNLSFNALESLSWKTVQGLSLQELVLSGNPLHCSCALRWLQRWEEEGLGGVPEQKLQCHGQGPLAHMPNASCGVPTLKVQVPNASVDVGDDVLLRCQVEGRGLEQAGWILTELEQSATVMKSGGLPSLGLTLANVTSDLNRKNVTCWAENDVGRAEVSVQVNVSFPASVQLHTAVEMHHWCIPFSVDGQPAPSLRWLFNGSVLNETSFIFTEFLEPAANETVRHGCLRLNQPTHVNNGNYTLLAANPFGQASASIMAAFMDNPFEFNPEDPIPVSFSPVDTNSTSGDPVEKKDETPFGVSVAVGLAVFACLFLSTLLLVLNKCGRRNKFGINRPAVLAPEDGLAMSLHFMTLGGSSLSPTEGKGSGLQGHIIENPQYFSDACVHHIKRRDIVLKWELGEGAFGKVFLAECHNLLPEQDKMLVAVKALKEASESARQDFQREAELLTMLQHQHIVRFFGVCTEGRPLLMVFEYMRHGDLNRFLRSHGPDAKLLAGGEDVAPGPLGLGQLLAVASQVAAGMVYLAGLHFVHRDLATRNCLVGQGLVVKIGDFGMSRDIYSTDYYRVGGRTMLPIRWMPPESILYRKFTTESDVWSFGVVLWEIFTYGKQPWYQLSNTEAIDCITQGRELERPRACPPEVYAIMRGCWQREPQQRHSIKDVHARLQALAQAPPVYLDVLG

For orientation: pIC50 means the negative decadic logarithm of the IC50, by convention in mol/L. Turning to `O=C(Nc1ccncc1C(=O)NC1CCOCC1)c1csc(N2CCC(Oc3ncccn3)CC2)n1` [Example 602], the “Rate in cange of effective bladder capacity” value (“Rate in cange” for short) in assay [1] (setting [3]) came out at 152%. Further, the pIC50 at human trkA receptor was 8.96.

In the case of `COCCNC(=O)c1cc(CN2CCOCC2)ccc1NC(=O)c1csc(N(C)CCOC)n1` [Example 1469], the inhibition in vivo at 10 mg/kg in assay [2] is 90%. In addition, at human trkA receptor, the pIC50 is 8.01.

Regarding `Nc1cc(-c2nc(C(=O)Nc3ccccc3C(=O)Nc3cccnc3)co2)ccn1` [Example 220], the pIC50 at human trkA receptor was 8.38.

Consider `COCCNC(=O)c1cc(CN2CCOCC2)ccc1NC(=O)c1csc(N2CCC(Oc3ncccn3)CC2)n1` [Example 564], for which the Inhibitory rate in assay [2] was 90%. In addition, the “Rate in cange” value in assay [1] (setting [3]) worked out at 146%. For the same compound, the pIC50 on human trkA receptor was 8.51.

As to `CN(CC1CCOCC1)c1nc(C(=O)Nc2ccccc2C(=O)Nc2cccnc2)cs1` [Ex 30], in assay [2], the inhibition in vivo at 10 mg/kg stood at 90%. For the same compound, the pIC50 at human trkA receptor is 9.24.

For `CO[C@H]1CCN(c2nc(C(=O)Nc3ccccc3C(=O)Nc3cccnc3)co2)C1` [Example 206], the “Rate in cange” value in assay [1] (setting [4]) was 159%. In addition, the pIC50 at human trkA receptor is 8.17.

In the case of `CCOC1CCN(c2nc(C(=O)Nc3ccccc3C(=O)NC3CCOCC3)cs2)CC1` [Ex 28], the inhibition in vivo at 10 mg/kg in assay [2] is 92%. Also, the pIC50 at human trkA receptor is 7.57.

Consider `COCCNC(=O)c1cc(CN2CCO[C@@H](C)C2)ccc1NC(=O)c1csc(N2CC[C@H](OC)C2)n1` [Example 1181, N-(2-[(2-methoxyethyl)carbamoyl]-4-{[(2S)-2-methylmorpholin-4-yl]methyl}phenyl)-2-[(3S)-3-methoxypyrrolidin-1-yl]-1,3-thiazole-4-carboxamide fumarate], for which the inhibition in vivo at 10 mg/kg in assay [2] was 81%. The pIC50 on human trkA receptor is 7.92.

On to `COCCN(C)c1nc(C(=O)Nc2ccccc2C(=O)Nc2cccnc2)cs1` [Example 103], for which the inhibition in vivo at 10 mg/kg in assay [2] came out at 98%. Besides, in assay [1] (oral dose 3 mg/kg, evaluation period 5-65 minutes after administration), the “Rate in cange” value amounted to 145%. Further, the pIC50 on human trkA receptor is 8.54.

Regarding `COCCNC(=O)c1cc(CN2CCOCC2)ccc1NC(=O)c1csc(N2CC(OC)C2)n1` [Example 1435], the inhibition in vivo at 10 mg/kg in assay [2] was found to be 71%. Also, on human trkA receptor, the pIC50 is 7.44.

With `O=C(Nc1ccccc1S(=O)(=O)C(F)F)c1csc(N2CCC(Oc3ncccn3)CC2)n1` [Example 611], on human trkA receptor, the pIC50 is 8.68.

On to `CN(CC1CCOCC1)c1nc(C(=O)Nc2ccc(CN3CCOCC3)cc2C(=O)NC2CCOCC2)cs1` [Example 930], for which the Inhibitory rate in assay [2] is listed as 86%. Besides, the “Rate in cange” value in assay [1] (setting [3]) turned out to be 170%. Further, the pIC50 on human trkA receptor was 8.17.

As for `COC[C@@H](C)NC(=O)c1cc(CN2CCOCC2)ccc1NC(=O)c1csc(N2CC(OC)C2)n1` [Example 1439], the inhibition in vivo at 10 mg/kg in assay [2] turned out to be 76%. Also, at human trkA receptor, the pIC50 is 7.60.

Take `CC(=O)c1cc(C2(C#N)CC2)ccc1NC(=O)c1csc(N2CCC(Oc3ncccn3)CC2)n1` [Example 628]: the pIC50 at human trkA receptor is 8.77.

In the case of `COCCNC(=O)c1cc(CN2CCOCC2)ccc1NC(=O)c1csc(N2CC[C@H](F)C2)n1` [Example 1470], the inhibition in vivo at 10 mg/kg in assay [2] worked out at 76%. For the same compound, the pIC50 on human trkA receptor is 7.74.

As to `O=C(Nc1ccccc1C(=O)Nc1cccnc1)c1coc(N2CCOCC2)n1` [Ex 11], the inhibition in vivo at 10 mg/kg in assay [2] was 69%. Besides, at human trkA receptor, the pIC50 was 8.16.

As to `O=C(Nc1ccc(CO)cc1Cl)c1csc(N2CCC(Oc3ncccn3)CC2)n1` [Ex 3], the pIC50 on human trkA receptor is 8.27.

For `COCCN(C)c1nc(C(=O)Nc2ccccc2C(=O)NC2CCOCC2)co1` [Example 361], the inhibition in vivo at 10 mg/kg in assay [2] is 78%. Also, the “Rate in cange” value in assay [1] (setting [4]) is given as 144%. In addition, the pIC50 on human trkA receptor was 7.46.

In the case of `COCCNC(=O)c1cc(CN2CCOCC2(C)C)ccc1NC(=O)c1csc(N2CC[C@H](OC)C2)n1` [Example 1343], the inhibition in vivo at 10 mg/kg in assay [2] was determined as 87%. For the same compound, the negative-log IC50 (pIC50) on human trkA receptor was 8.00.

As to `CCOCc1ccc(NC(=O)c2csc(N3CC[C@H](OC)C3)n2)c(C(=O)NCCOC)c1` [Example 1449], in assay [2], the inhibition in vivo at 10 mg/kg was determined as 76%. In addition, on human trkA receptor, the pIC50 is 8.06.
